From US20200246314A1, “DYSLIPIDEMIA THERAPEUTIC AGENT” (KOWA COMPANY, LTD., priority 2014, published 2020)

Test system: LDL-C in plasma
Assay: Effect on LDL-C of rat in combination use of compound A and niacin
Assay type: in vivo
Conditions: male SD rats, oral once per day for one week, blood 4 h after final administration; single agent: compound A 0.1 mg/kg or nicotinic acid 100 mg/kg
Text: Male rats (6-week-old, Jcl:SD, CLEA Japan, Inc.) were used for an experiment. Blood was collected from the jugular vein under satiation. The rats were divided into four groups (N=8) based on TG and TC in plasma and a body weight. For one week from the next day, each of a solvent (0.5% methylcellulose aqueous solution: MC), compound A alone, nicotinic acid alone, and combination of compound A and nicotinic acid was orally administered once per day. Four hours after final administration of the pharmaceutical agent, blood was collected under isoflurane anesthesia, and LDL-C in plasma was measured using high performance liquid chromatography by a method of Usui et al (Usui S et al. Clin Chem., 46, 63-72, 2000). Group 1: Control Group 2: 0.1 mg/kg of compound A […] Group 4: 0.1 mg/kg of compound A and 100 mg/kg of nicotinic acid Results were presented by an average value±standard deviation. Comparison between the control group and each of the pharmaceutical agent administration groups was performed by a multiple comparison test of Dunnett, and a risk rate of less than 5% was determined to have a significant difference.

Row | SMILES | effect on LDL-C in plasma
1 | O=C(O)c1cccnc1 [nicotinic acid, pyridine-3-carboxylic acid] | did not exhibit a clear effect on LDL-C
2 | CC[C@@H](Oc1cccc(CN(CCCOc2ccc(OC)cc2)c2nc3ccccc3o2)c1)C(=O)O [Compound A, (R)-2-[3-[[N-(benzoxazol-2-yl)-N-3-(4-methoxyphenoxy)propyl]aminomethyl]phenoxy] butyric acid] | did not exhibit a clear effect on LDL-C
